Assay results as given in ChEMBL document CHEMBL4330132, “5-Keto-3-cyano-2,4-diaminothiophenes as selective maternal embryonic leucine zipper kinase inhibitors” (Bioorg Med Chem Lett, 2019).

Assays:
[1] = target: Phosphatidylinositol 5-phosphate 4-kinase type-2 beta (Homo sapiens) (UniProt P78356); test: Binding affinity to wild-type human full length PIP5K2B (M1 to T416 residues) expressed in bacterial expression system assessed as residual binding level at 1 uM by Kinomescan method relative to control
[2] = target: Phosphatidylinositol 4,5-bisphosphate 3-kinase catalytic subunit gamma isoform (Homo sapiens) (UniProt P48736); test: Binding affinity to wild-type human partial length PIK3CG (S144 to A1102 residues) expressed in mammalian expression system assessed as residual binding level at 1 uM by Kinomescan method relative to control
[3] = target: Protein-tyrosine kinase 2-beta (Homo sapiens) (UniProt Q14289); test: Binding affinity to wild-type human full length PYK2 (M1 to E967 residues) expressed in bacterial expression system assessed as residual binding level at 1 uM by Kinomescan method relative to control
[4] = target: Serine/threonine-protein kinase MRCK alpha (Homo sapiens) (UniProt Q5VT25); test: Binding affinity to wild-type human partial length MRCKA (L57 to V418 residues) expressed in bacterial expression system assessed as residual binding level at 1 uM by Kinomescan method relative to control
[5] = target: Ephrin type-A receptor 7 (Homo sapiens) (UniProt Q15375); test: Binding affinity to wild-type human partial length EPHA7 (Y608 to S912 residues) expressed in bacterial expression system assessed as residual binding level at 1 uM by Kinomescan method relative to control
[6] = target: Ribosomal protein S6 kinase beta-1 (Homo sapiens) (UniProt P23443); test: Binding affinity to wild-type human partial length S6K1 (M1 to S421 residues) expressed in mammalian expression system assessed as residual binding level at 1 uM by Kinomescan method relative to control
[7] = target: Homeodomain-interacting protein kinase 2 (Homo sapiens) (UniProt Q9H2X6); test: Binding affinity to wild-type human partial length HIPK2 (M153 to S564 residues) expressed in mammalian expression system assessed as residual binding level at 1 uM by Kinomescan method relative to control
[8] = target: Fibroblast growth factor receptor 2 (Homo sapiens) (UniProt P21802); test: Binding affinity to wild-type human partial length FGFR2 (D457 to E769 residues) expressed in bacterial expression system assessed as residual binding level at 1 uM by Kinomescan method relative to control
[9] = target: Phosphatidylinositol 4-kinase beta (Homo sapiens) (UniProt Q9UBF8); test: Binding affinity to wild-type human full length PIK4CB (M1 to M828 residues) expressed in mammalian expression system assessed as residual binding level at 1 uM by Kinomescan method relative to control
[10] = target: Tyrosine-protein kinase ABL1 (Homo sapiens) (UniProt P00519); test: Binding affinity to wild-type human phosphorylated ABL1 (S229 to K512 residues) expressed in mammalian expression system assessed as residual binding level at 1 uM by Kinomescan method relative to control
[11] = target: Protein kinase C epsilon type (Homo sapiens) (UniProt Q02156); test: Binding affinity to wild-type human partial length PRKCE (A378 to P737 residues) expressed in mammalian expression system assessed as residual binding level at 1 uM by Kinomescan method relative to control
[12] = target: Mitogen-activated protein kinase kinase kinase 4 (Homo sapiens) (UniProt Q9Y6R4); test: Binding affinity to wild-type human partial length MAP3K4 (G1319 to E1608 residues) expressed in bacterial expression system assessed as residual binding level at 1 uM by Kinomescan method relative to control
[13] = target: Phosphorylase b kinase gamma catalytic chain, liver/testis isoform (Homo sapiens) (UniProt P15735); test: Binding affinity to wild-type human partial length PHKG2 (M1 to W300 residues) expressed in bacterial expression system assessed as residual binding level at 1 uM by Kinomescan method relative to control
[14] = target: Angiopoietin-1 receptor (Homo sapiens) (UniProt Q02763); test: Binding affinity to wild-type human partial length TIE2 (N804 to T1112 residues) expressed in bacterial expression system assessed as residual binding level at 1 uM by Kinomescan method relative to control
[15] = target: Phosphatidylinositol 4,5-bisphosphate 3-kinase catalytic subunit alpha isoform (Homo sapiens) (UniProt P42336); test: Binding affinity to wild-type human partial length PIK3CA (R108 to N1068 residues) expressed in mammalian expression system assessed as residual binding level at 1 uM by Kinomescan method relative to control
[16] = target: Mitogen-activated protein kinase kinase kinase 20 (Homo sapiens) (UniProt Q9NYL2); test: Binding affinity to wild-type human partial length ZAK (M1 to L331 residues) expressed in bacterial expression system assessed as residual binding level at 1 uM by Kinomescan method relative to control
[17] = target: Calcium/calmodulin-dependent protein kinase type II subunit delta (Homo sapiens) (UniProt Q13557); test: Binding affinity to wild-type human partial length CAMK2D (M1 to E329 residues) expressed in bacterial expression system assessed as residual binding level at 1 uM by Kinomescan method relative to control
[18] = tested on: Receptor-type tyrosine-protein kinase FLT3 (Homo sapiens), P36888 [UNDEFINED MUTATION]; test: Binding affinity to human partial length FLT3 ITD mutant expressed in bacterial expression system assessed as residual binding level at 1 uM by Kinomescan method relative to control
[19] = target: Tyrosine-protein kinase ITK/TSK (Homo sapiens) (UniProt Q08881); test: Binding affinity to wild-type human partial length ITK (R335 to L620 residues) expressed in bacterial expression system assessed as residual binding level at 1 uM by Kinomescan method relative to control
[20] = target: Phosphatidylinositol 4,5-bisphosphate 3-kinase catalytic subunit beta isoform (Homo sapiens) (UniProt P42338); test: Binding affinity to wild-type human partial length PIK3CB (P118 to S1070 residues) expressed in mammalian expression system assessed as residual binding level at 1 uM by Kinomescan method relative to control
[21] = target: Cyclin-dependent kinase 8 (Homo sapiens) (UniProt P49336); test: Binding affinity to wild-type human partial length CDK8 (M1 to T360 residues) expressed in bacterial expression system assessed as residual binding level at 1 uM by Kinomescan method relative to control
[22] = target: Interleukin-1 receptor-associated kinase 1 (Homo sapiens) (UniProt P51617); test: Binding affinity to wild-type human partial length IRAK1 (R194 to S712 residues) expressed in mammalian expression system assessed as residual binding level at 1 uM by Kinomescan method relative to control
[23] = target: Mitogen-activated protein kinase kinase kinase 9 (Homo sapiens) (UniProt P80192); test: Binding affinity to wild-type human partial length MLK1 (V88 to W426 residues) expressed in bacterial expression system assessed as residual binding level at 1 uM by Kinomescan method relative to control
[24] = target: cAMP-dependent protein kinase catalytic subunit PRKX (Homo sapiens) (UniProt P51817); test: Binding affinity to wild-type human partial length PRKX (M1 to F358 residues) expressed in bacterial expression system assessed as residual binding level at 1 uM by Kinomescan method relative to control
cAMP-dependent protein kinase catalytic subunit PRKX (Homo sapiens), sequence (P51817 whole entry, the tested form may be a part): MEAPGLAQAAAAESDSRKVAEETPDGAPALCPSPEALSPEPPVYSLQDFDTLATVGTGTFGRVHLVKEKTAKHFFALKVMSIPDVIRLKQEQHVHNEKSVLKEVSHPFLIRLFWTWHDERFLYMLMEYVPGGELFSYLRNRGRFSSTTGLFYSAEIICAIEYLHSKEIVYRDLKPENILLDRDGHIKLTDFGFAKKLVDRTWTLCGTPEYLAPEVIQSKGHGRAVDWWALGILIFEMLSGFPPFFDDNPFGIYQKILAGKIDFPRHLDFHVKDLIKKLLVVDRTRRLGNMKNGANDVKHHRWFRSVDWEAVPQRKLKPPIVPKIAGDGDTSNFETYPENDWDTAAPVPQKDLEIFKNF

Protein-tyrosine kinase 2-beta (Homo sapiens), sequence (Q14289 whole entry, looked up, the tested form may be a part): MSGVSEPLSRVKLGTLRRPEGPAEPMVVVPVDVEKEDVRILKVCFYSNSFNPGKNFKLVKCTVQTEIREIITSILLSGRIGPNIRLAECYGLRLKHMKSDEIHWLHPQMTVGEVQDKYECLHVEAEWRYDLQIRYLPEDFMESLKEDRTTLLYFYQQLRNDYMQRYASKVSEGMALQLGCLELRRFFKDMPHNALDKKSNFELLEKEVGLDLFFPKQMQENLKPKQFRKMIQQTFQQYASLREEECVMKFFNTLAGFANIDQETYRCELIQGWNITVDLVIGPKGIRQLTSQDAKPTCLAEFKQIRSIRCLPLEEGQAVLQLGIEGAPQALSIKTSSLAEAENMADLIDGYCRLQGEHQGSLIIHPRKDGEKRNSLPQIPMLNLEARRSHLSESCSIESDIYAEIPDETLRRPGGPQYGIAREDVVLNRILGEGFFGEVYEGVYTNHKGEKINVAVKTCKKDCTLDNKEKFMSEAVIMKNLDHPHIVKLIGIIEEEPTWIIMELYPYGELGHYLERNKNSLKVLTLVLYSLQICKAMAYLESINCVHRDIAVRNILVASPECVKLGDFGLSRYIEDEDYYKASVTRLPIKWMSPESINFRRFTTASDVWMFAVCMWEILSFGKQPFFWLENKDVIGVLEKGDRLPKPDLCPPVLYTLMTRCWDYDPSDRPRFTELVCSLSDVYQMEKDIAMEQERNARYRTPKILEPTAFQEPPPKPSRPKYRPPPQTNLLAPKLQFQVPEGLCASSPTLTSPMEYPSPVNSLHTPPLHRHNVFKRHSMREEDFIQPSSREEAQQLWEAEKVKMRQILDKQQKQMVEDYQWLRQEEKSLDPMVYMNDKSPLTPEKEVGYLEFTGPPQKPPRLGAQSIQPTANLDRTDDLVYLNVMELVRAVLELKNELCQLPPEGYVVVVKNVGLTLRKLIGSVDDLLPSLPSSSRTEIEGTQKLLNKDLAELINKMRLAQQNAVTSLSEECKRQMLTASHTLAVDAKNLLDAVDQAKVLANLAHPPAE
Phosphatidylinositol 5-phosphate 4-kinase type-2 beta (Homo sapiens), sequence (P78356 whole entry, the tested form may be a part, canonical isoform): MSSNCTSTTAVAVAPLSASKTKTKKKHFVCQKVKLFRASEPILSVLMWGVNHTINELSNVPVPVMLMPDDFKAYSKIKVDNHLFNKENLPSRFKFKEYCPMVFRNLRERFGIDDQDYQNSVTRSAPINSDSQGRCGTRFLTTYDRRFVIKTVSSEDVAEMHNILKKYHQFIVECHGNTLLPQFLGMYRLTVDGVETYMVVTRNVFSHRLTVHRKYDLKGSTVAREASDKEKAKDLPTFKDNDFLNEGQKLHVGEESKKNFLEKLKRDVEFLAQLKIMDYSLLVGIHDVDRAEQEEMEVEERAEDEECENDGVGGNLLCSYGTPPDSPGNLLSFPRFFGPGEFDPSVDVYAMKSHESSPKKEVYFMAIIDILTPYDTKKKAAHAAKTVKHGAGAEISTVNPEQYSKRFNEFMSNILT
Angiopoietin-1 receptor (Homo sapiens), sequence (Q02763 whole entry, the tested form may be a part, canonical isoform): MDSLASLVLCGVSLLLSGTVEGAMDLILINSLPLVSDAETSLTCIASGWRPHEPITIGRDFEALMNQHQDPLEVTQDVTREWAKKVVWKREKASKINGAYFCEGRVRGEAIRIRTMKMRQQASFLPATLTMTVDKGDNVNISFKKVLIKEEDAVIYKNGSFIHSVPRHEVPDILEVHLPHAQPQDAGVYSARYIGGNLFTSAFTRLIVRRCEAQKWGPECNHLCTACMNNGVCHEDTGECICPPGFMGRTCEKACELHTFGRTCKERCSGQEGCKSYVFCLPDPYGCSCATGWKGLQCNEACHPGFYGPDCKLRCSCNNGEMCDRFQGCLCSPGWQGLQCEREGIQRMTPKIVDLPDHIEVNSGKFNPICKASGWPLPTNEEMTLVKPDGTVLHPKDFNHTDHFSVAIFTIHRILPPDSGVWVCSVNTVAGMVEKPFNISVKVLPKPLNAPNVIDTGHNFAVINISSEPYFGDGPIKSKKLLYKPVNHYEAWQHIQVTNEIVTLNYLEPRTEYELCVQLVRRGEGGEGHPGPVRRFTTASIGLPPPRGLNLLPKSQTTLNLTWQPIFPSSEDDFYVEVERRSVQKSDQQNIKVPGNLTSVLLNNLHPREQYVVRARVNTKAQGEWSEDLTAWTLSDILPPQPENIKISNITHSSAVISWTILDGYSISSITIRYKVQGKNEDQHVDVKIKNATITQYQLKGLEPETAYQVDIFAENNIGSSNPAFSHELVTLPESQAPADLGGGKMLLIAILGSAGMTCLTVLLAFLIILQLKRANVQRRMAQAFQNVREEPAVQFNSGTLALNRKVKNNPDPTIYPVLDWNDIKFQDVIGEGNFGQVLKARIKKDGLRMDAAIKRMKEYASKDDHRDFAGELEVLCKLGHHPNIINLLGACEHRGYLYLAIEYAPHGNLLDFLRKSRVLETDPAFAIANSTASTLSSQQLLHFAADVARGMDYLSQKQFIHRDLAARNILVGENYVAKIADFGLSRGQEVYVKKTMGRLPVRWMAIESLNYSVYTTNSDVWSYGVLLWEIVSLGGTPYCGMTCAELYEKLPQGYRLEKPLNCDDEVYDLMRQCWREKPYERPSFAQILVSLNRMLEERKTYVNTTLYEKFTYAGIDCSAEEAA
Serine/threonine-protein kinase MRCK alpha (Homo sapiens), sequence (Q5VT25 whole entry, the tested form may be a part): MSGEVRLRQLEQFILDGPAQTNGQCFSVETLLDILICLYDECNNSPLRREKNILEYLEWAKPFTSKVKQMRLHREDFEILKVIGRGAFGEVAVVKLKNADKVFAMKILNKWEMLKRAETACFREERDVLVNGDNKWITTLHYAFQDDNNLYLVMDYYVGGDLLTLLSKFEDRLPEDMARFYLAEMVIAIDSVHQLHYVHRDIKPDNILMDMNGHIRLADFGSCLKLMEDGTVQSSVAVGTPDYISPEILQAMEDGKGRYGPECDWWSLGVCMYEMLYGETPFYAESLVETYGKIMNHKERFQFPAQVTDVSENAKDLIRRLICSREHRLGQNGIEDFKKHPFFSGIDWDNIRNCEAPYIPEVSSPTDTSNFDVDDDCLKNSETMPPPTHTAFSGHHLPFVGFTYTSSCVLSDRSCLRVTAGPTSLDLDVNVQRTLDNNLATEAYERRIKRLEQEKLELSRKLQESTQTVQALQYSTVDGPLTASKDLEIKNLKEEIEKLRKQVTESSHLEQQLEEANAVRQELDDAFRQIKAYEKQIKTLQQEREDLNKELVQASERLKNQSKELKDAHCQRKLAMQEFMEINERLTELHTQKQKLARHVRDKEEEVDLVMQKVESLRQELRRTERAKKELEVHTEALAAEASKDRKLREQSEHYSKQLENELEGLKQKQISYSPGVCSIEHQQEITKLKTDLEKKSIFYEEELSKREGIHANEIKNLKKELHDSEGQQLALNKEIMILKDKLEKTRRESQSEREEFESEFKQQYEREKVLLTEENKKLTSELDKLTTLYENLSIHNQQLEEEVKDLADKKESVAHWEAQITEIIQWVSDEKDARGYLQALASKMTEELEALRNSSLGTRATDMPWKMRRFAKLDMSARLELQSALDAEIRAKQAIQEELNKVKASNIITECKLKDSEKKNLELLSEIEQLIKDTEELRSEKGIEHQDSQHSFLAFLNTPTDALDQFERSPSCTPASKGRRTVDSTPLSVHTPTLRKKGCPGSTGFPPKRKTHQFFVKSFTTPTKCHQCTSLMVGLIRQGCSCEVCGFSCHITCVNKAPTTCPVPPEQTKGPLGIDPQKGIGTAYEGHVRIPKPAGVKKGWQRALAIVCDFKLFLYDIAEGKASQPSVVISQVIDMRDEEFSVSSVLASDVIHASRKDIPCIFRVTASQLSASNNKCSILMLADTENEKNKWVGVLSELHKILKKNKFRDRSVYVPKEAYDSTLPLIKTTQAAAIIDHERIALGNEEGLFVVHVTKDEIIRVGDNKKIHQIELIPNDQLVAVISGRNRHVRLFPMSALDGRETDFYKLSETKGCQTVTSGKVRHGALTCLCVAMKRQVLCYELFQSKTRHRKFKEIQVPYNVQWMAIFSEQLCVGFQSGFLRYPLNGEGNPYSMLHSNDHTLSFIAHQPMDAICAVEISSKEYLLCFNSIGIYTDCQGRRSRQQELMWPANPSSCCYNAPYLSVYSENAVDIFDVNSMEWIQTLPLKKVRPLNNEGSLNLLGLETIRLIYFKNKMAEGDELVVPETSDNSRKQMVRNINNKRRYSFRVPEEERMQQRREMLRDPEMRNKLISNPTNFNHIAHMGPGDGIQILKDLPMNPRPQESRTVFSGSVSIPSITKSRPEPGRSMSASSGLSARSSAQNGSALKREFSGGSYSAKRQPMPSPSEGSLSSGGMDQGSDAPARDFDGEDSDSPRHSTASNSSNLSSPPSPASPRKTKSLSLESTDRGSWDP
Cyclin-dependent kinase 8 (Homo sapiens), sequence (P49336 whole entry, the tested form may be a part): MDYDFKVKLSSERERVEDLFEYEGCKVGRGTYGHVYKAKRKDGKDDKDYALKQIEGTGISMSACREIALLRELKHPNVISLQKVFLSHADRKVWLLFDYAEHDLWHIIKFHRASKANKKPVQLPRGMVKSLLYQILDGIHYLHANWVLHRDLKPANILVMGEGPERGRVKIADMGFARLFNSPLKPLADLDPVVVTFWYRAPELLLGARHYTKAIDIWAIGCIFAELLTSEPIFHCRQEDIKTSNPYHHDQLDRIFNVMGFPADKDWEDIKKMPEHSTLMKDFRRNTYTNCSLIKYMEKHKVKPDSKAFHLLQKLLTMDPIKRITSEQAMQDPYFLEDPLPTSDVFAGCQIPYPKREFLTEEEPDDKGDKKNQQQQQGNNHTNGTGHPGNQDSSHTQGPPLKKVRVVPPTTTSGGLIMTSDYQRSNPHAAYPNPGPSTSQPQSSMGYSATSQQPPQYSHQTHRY

## CC(C)Nc1sc(C(=O)c2ccc(Cl)s2)c(N)c1C#N
[1]
  Activity: 100%
[2]
  Activity: 100%
[3]
  Activity: 100%
[4]
  Activity: 87%
[5]
  Activity: 82%
[6]
  Activity: 93%
[7]
  Activity: 94%
[8]
  Activity: 99%
[9]
  Activity: 100%
[10]
  Activity: 100%
[11]
  Activity: 85%
[12]
  Activity: 100%
[13]
  Activity: 72%
[14]
  Activity: 96%
[15]
  Activity: 100%
[16]
  Activity: 95%
[17]
  Activity: 79%
[18]
  Activity: 77%
[19]
  Activity: 93%
[20]
  Activity: 90%
[21]
  Activity: 84%
[22]
  Activity: 77%
[23]
  Activity: 98%
[24]
  Activity: 79%
